{"source": "patent US9757350B2", "about": "“Small molecule inhibitors of replication protein A that also act synergistically with cisplatin” (Indiana University Research and Technology Corp., priority 2010, dated 2017)", "key": {"H460 cells": {"system": "H460 cells", "assay": "Cell cycle analysis by PI staining, H460", "assay_type": "cell-based", "settings": "H460, increasing doses", "description": "Referring now to FIG. 12A and FIG. 12B. Cell Cycle Analysis of Lung Cancer Cell Lines Following Treatment with MCI13E. A549. Referring now to FIG. 12C, and FIG. 12D. H460 were treated as indicated and analyzed for the cell cycle distribution using PI staining and flow cytometry. Quantification of data following 6 hours and 12 hour treatment with 10 and 20 μM MCI13E was performed for both A549 (FIG. 12E) and H460 (FIG. 12F) Data presented represent the averages of three replicate experiments.\n(§1) Cell cycle analysis was also performed on the three lung cancer cell lines using PI staining to identify the potential arrest resulting from treatment with SMIs. Briefly, cells were plated in 6-well dishes (2×10^5 cells total) and treated for 6 or 12 hours with increasing concentration of inhibitor. Adherent and non-adherent cells were collected, washed twice with PBS containing 2% bovine serum albumin (BSA), resuspended in 70% cold EtOH and incubated overnight at −20° C. Cells were again collected and stained with PI (1 μg/mL) and RNaseA (25 μg/mL) for 30 min. at 37° C. followed by 1.5 hours at 4° C. in the dark. Flow cytometry was performed as above and data were analyzed on a histogram with events plotted against the FL2-A parameter. Cell cycle distribution was analyzed using the ModFit software and data presented represents three independent trials."}, "RPA": {"system": "RPA", "assay": "Western blot of endogenous RPA34 levels", "assay_type": "cell-based", "settings": "western blot for RPA34", "description": "Referring now to FIG. 18. Blot showing Endogenous Levels of RPA. Each cell line analyzed were plated (3×10^6) in 10 cm dishes and allowed to adhere overnight. Following a 5 ml PBS wash the cells were scraped into 100 μl of RIPA buffer. Cell extracts (40 μg) were loaded onto 10% SDS-PAGE gels, transferred to nitrocellulose membranes and probed for the presence of RPA34. Purified RPA was used as a positive control while GAPDH was probed for a loading control."}, "H1299 cells": {"system": "H1299 cells", "assay": "Cell cycle analysis by PI staining, H1299", "assay_type": "cell-based", "settings": "6, 12 and 24 hours of treatment", "description": "as §1, with “Briefly, cells were plated in 6-well dishes (2×10^5 cells total) and treated for 6 or 12 hours with increasing concentration of inhibitor.” left out"}, "[1]": {"system": "NSCLC cell lines A549 and H460", "assay": "Apoptosis by Annexin V/PI staining, NSCLC cell lines", "assay_type": "cell-based", "settings": "48 hours", "description": "Referring now to FIG. 11A. Gel showing effect of MCI13E on DNA-RPA binding. […] Cytotoxicity was analyzed via crystal violet analysis as described in “methods” 48 hours following MCI13E treatment. Data represent the average and standard deviation of four replicate experiments with each replicate containing triplicate determinations and the circles represent data from H460 cells and squares A549 cells. Referring now to FIG. 11C. Graph of MCI13E induced death via apoptosis in NSCLC cell lines. Cell were treated with the indicated concentrations of MCI13E for 48 hours and analyzed for the induction of apoptosis via Annexin V/PI staining Referring now to FIG. 11D. Graph of cell survival as a function of [MCI1EC]. Percent survival was calculated for each cell line using untreated cells as a control. […]\nFlow Cytometry—After determining the SMI cytotoxicity, H460, A549 and H1299 lung cancer cell lines were analyzed for apoptosis using the Annexin V-FITC/Propidium Iodide (PI) Vybrant® Apoptosis Assay kit (Invitrogen, Gaithersburg, Md.). […] Following treatment, both adherent and non-adherent cells were collected, processed via the manufacturer's protocol (Invitrogen) and analyzed on a FACScan flow cytometer (Becton Dickson, San Jose, Calif.). Data was analyzed using WinDMI software (The Scripps Research Institute, Can Diego, Calif.) and results are presented as a percentage of control (untreated cells)."}, "[2]": {"molecular_target": "T1, full-length heterotrimeric RPA (Homo sapiens, UniProt P27694)", "T1 construct": "Human full-length, un-tagged heterotrimeric RPA (RPA) was purified as previously describe; made in house", "T1 sequence (P27694 whole entry)": "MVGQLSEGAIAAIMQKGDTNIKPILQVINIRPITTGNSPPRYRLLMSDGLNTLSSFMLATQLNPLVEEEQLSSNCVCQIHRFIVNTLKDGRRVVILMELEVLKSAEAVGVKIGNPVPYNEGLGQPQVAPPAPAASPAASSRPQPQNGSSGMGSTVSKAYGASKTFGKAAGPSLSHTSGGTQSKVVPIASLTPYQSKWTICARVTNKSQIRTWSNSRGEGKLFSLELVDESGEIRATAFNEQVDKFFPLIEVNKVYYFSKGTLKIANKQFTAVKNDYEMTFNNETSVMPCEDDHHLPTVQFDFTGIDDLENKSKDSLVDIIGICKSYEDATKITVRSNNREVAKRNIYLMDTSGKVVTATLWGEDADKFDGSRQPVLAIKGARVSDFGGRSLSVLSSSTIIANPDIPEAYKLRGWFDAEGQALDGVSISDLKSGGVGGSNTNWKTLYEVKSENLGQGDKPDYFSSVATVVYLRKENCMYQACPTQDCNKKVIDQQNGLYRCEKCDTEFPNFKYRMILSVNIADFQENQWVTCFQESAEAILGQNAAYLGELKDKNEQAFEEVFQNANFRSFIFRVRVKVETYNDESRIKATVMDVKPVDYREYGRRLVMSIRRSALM", "T1 sequence (P15927 whole entry partner)": "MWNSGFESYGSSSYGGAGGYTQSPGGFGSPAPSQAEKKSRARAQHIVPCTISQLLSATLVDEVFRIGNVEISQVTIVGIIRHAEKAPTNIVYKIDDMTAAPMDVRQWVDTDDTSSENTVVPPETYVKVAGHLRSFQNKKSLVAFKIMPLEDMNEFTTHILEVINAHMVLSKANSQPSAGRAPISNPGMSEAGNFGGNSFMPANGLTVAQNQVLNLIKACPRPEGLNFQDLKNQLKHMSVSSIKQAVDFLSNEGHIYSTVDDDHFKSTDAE", "T1 sequence (P35244 whole entry partner)": "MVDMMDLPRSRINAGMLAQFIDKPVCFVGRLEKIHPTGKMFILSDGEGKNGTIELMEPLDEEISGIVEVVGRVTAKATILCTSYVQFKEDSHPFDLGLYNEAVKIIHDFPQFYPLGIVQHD", "assay": "Reversibility of full-length RPA inhibition: dialysis, then EMSA", "assay_type": "binding", "settings": "overnight dialysis, then EMSA with 34-base DNA", "description": "Considering the differential inhibition observed between the anhydride and halo esters with respect to specificity, experiments were carried out to determine if the isoborneol halo-esters inhibited full-length RPA in an irreversible fashion. Full-length RPA was mixed with MCI13E or vehicle control and the reaction mixtures were then dialyzed overnight. Referring now to FIG. 5. Gel showing irreversible inactivation of full-length heterotrimeric RPA by MCI13E. Incubation of RPA with MCI13E, dialysis and recovery was performed as described for FIG. 3. DNA binding activity of the resulting protein was assessed by EMSA using a 5′-[^32P]-ss 34-base DNA as described in “Methods”. Lanes 1-4 pre-dialysis, lanes 5 and 6 post dialysis. […] In fact, the degree of inhibition was similar to that observed for the MCI13E treated RPA before dialysis (FIG. 5 lanes 3 and 4). […] This activity is consistent with MCI13E and F and their reaction with RPA serving as a pharmacodynamic marker of RPA inhibition or as a biomarker for RPA expression and activity.\nIn order to assess the reversibility of select SMIs, the indicated SMI was pre-incubated with RPA or the DBD-A/B construct for 30 minutes at room temperature. […] The resulting protein was recovered and concentration determined by Bradford analysis. […]"}}}
{"smiles": "CC1(C)C2CCC1(C)C(OC(=O)CBr)C2", "note": "(racemic) [MCI13E, (+/−)-Isobornyl bromoacetate]", "values": [{"measurement": "Cell cycle distribution", "setting": "H460 cells", "value": "increase in the proportion of cells in S-phase"}, {"measurement": "Levels of endogenous RPA", "setting": "RPA", "value": "No change in the levels of endogenous RPA"}, {"measurement": "Cell cycle distribution", "setting": "H1299 cells", "value": "increased percentage of cells accumulated in S-phase"}, {"measurement": "Mode of cell death", "setting": "[1]", "value": "induces death via classical apoptosis"}, {"measurement": "Reversibility of full-length RPA inhibition", "setting": "[2]", "value": "inhibition was not reversed by dialysis"}]}
